The values that follow come from PubChem BioAssay AID1259407 (Chemical Carcinogenesis Research Information System (CCRIS), 2018).

Molecules are shown by their SMILES. Activity calls are given as the source filed them. How the calls were made is not given here.

In the data set the test system is CCRIS mutagenicity, Ames/micronucleus/aberration tests. The data set is described as follows: CCRIS mutagenicity studies.
The mark [1] stands for this setting: Test System: AMES SALMONELLA TYPHIMURIUM, Strain/Indicator: TA100, Metabolic Activation: NONE, Method: PREINCUBATION
[2] abbreviates: Test System: AMES SALMONELLA TYPHIMURIUM, Strain/Indicator: TA100, Metabolic Activation: NONE, Method: STANDARD PLATE.
Where [3] appears, read: Test System: AMES SALMONELLA TYPHIMURIUM, Strain/Indicator: TA98, Metabolic Activation: NONE, Method: STANDARD PLATE.

As to `CC(=O)C=O`, the mutagenic call by setting is: (Test System: AMES SALMONELLA TYPHIMURIUM, Strain/Indicator: TA98, Metabolic Activation: NONE, Method: PREINCUBATION) “active; positive”; (Test System: AMES SALMONELLA TYPHIMURIUM, Strain/Indicator: TA98, Metabolic Activation: RAT, LIVER, S-9, AROCLOR 1254, Method: PREINCUBATION) “inactive; negative”; under setting [1], “active; positive”; under setting [2], “active; positive”; (Test System: AMES SALMONELLA TYPHIMURIUM, Strain/Indicator: TA100, Metabolic Activation: RAT, LIVER, S-9, AROCLOR 1254, Method: PREINCUBATION) “active; positive”; (Test System: AMES SALMONELLA TYPHIMURIUM, Strain/Indicator: TA102, Metabolic Activation: NONE, Method: PREINCUBATION) “active; positive”. Also, the mutagenic call is, setting by setting: (Test System: AMES SALMONELLA TYPHIMURIUM, Strain/Indicator: TA102, Metabolic Activation: RAT, LIVER, S-9, AROCLOR 1254, Method: PREINCUBATION) “active; positive”; (Test System: AMES SALMONELLA TYPHIMURIUM, Strain/Indicator: TA102, Metabolic Activation: RAT, LIVER, S-9, PHENOBARBITAL AND BETA-NAPHTHOFLAVONE, Method: PREINCUBATION) “active; positive”; (Test System: AMES SALMONELLA TYPHIMURIUM, Strain/Indicator: TA104, Metabolic Activation: NONE, Method: PREINCUBATION) “active; positive”; (Test System: AMES SALMONELLA TYPHIMURIUM, Strain/Indicator: TA104, Metabolic Activation: RAT, LIVER, S-9, PHENOBARBITAL AND BETA-NAPHTHOFLAVONE, Method: PREINCUBATION) “active; positive”; (Test System: AMES SALMONELLA TYPHIMURIUM, Strain/Indicator: TA2638, Metabolic Activation: NONE, Method: PREINCUBATION) “active; positive”; (Test System: AMES SALMONELLA TYPHIMURIUM, Strain/Indicator: TA2659, Metabolic Activation: NONE, Method: PREINCUBATION) “active; positive”. For the same molecule, the mutagenic call runs as follows: (Test System: CHINESE HAMSTER V-79, Strain/Indicator: V-79/6-THIOGUANINE, Metabolic Activation: NONE, Method: PREINCUBATION) “active; positive”; (Test System: CHINESE HAMSTER V-79, Strain/Indicator: V-79/6-THIOGUANINE, Metabolic Activation: RAT HEPATOCYTES, Method: PREINCUBATION) “active; positive”.
`O=C([O-])c1cccnc1Nc1cccc(C(F)(F)F)c1.O=C([O-])c1cccnc1Nc1cccc(C(F)(F)F)c1.[Cu+2]`: the mutagenic call reads like this: (Test System: AMES SALMONELLA TYPHIMURIUM, Strain/Indicator: TA97, Metabolic Activation: MOUSE, LIVER, S-9, Method: STANDARD PLATE) “inactive; negative”; (Test System: AMES SALMONELLA TYPHIMURIUM, Strain/Indicator: TA97, Metabolic Activation: NONE, Method: STANDARD PLATE) “inactive; negative”; (Test System: AMES SALMONELLA TYPHIMURIUM, Strain/Indicator: TA97, Metabolic Activation: RAT LIVER S-9, DELOR 103, Method: STANDARD PLATE) “inactive; negative”; (Test System: AMES SALMONELLA TYPHIMURIUM, Strain/Indicator: TA98, Metabolic Activation: MOUSE, LIVER, S-9, Method: STANDARD PLATE) “inactive; negative”; under setting [3], “inactive; negative”; (Test System: AMES SALMONELLA TYPHIMURIUM, Strain/Indicator: TA98, Metabolic Activation: RAT LIVER S-9, DELOR 103, Method: STANDARD PLATE) “inactive; negative”. In addition, the mutagenic call runs as follows: (Test System: AMES SALMONELLA TYPHIMURIUM, Strain/Indicator: TA100, Metabolic Activation: MOUSE, LIVER, S-9, Method: STANDARD PLATE) “inactive; negative”; under setting [2], “inactive; negative”; (Test System: AMES SALMONELLA TYPHIMURIUM, Strain/Indicator: TA100, Metabolic Activation: RAT LIVER S-9, DELOR 103, Method: STANDARD PLATE) “inactive; negative”; (Test System: AMES SALMONELLA TYPHIMURIUM, Strain/Indicator: TA102, Metabolic Activation: MOUSE, LIVER, S-9, Method: STANDARD PLATE) “inactive; negative”; (Test System: AMES SALMONELLA TYPHIMURIUM, Strain/Indicator: TA102, Metabolic Activation: NONE, Method: STANDARD PLATE) “inactive; negative”; (Test System: AMES SALMONELLA TYPHIMURIUM, Strain/Indicator: TA102, Metabolic Activation: RAT LIVER S-9, DELOR 103, Method: STANDARD PLATE) “inactive; negative”.
On to `CC(=C\C1=CCOC1=O)/C=C(C)/C=C/C=C(\C)C(=O)[C@]12O[C@H]1[C@@](O)(CCO)NC2=O`, for which the mutagenic call under setting [1] was “active; positive”.
On to `Cc1ccc([N+](=O)[O-])c(S(=O)(=O)O)c1[N+](=O)[O-]`, for which the mutagenic call is, setting by setting: (End Point: In vitro chromosomal aberrations, Test System: V79 Chinese hamster fibroblasts, Metabolic Activation: None) “inactive; negative”; (Test System: Ames Salmonella typhimurium, Strain/Indicator: TA98, Metabolic Activation: None, Method: Standard plate) “inactive; negative”; (Test System: Ames Salmonella typhimurium, Strain/Indicator: TA98, Metabolic Activation: Rat, Liver, S-9, Method: Standard plate) “inactive; negative”; (Test System: Ames Salmonella typhimurium, Strain/Indicator: TA100, Metabolic Activation: None, Method: Standard plate) “inactive; negative”; (Test System: Ames Salmonella typhimurium, Strain/Indicator: TA100, Metabolic Activation: Rat, Liver, S-9, Method: Standard plate) “inactive; negative”.
As to `O=C1CCC(=O)N1Br`, the mutagenic call reads like this: (Test System: AMES SALMONELLA TYPHIMURIUM, Strain/Indicator: TA98, Metabolic Activation: HAMSTER, LIVER, S-9, AROCLOR 1254 (10%), Method: STANDARD PLATE) “inactive; negative”; under setting [3], “inactive; negative”; (Test System: AMES SALMONELLA TYPHIMURIUM, Strain/Indicator: TA98, Metabolic Activation: RAT, LIVER, S-9, AROCLOR 1254 (10%), Method: STANDARD PLATE) “inactive; negative”; (Test System: AMES SALMONELLA TYPHIMURIUM, Strain/Indicator: TA100, Metabolic Activation: HAMSTER, LIVER, S-9, AROCLOR 1254 (10%), Method: STANDARD PLATE) “active; positive”; under setting [2], “inactive; negative”; (Test System: AMES SALMONELLA TYPHIMURIUM, Strain/Indicator: TA100, Metabolic Activation: RAT, LIVER, S-9, AROCLOR 1254 (10%), Method: STANDARD PLATE) “active; positive”. For the same molecule, the mutagenic call is “active; positive. reevaluation of results: equivocal” (Test System: MOUSE LYMPHOMA, Strain/Indicator: L5178Y (TK+/TK-), Metabolic Activation: NONE, Method: SUSPENSION/PLATE) and “inactive; negative. reevaluation of results: negative” (Test System: MOUSE LYMPHOMA, Strain/Indicator: L5178Y (TK+/TK-), Metabolic Activation: RAT, LIVER, S-9, AROCLOR 1254, Method: SUSPENSION/PLATE).
